Measured values taken from patent US20080200567A1, “IN VIVO SCREENING MODELS FOR TREATMENT OF ALZHEIMER'S DISEASE AND OTHER QPCT-RELATED DISORDERS” (PROBIODRUG AG, priority 2007, published 2008).

What was measured:
human QC = biological target: T1, human QC (Homo sapiens, UniProt Q16769); assay: QC inhibition by chelators (inhibitor assay); assay type: biochemical; conditions: human QC and other animal QCs
T1 construct: The cDNA of the mature QC starting with codon 38 was fused in frame with the plasmid encoded 6× histidine tag; 6x histidine; made in house; host or cells: Pichia pastoris X33 (pPICZαB) or E. coli M15 (pQE-31)
Method: QC activity was evaluated fluorometrically using H-Gln-βNA. The samples consisted of 0.2 mM fluorogenic substrate, 0.25 U pyroglutamyl aminopeptidase (Unizyme, Horsholm, Denmark) in 0.2 M Tris/HCl, pH 8.0 containing 20 mM EDTA and an appropriately diluted aliquot of QC in a final volume of 250 μl. Excitation/emission wavelengths were 320/410 nm. The assay reactions were initiated by addition of glutaminyl cyclase. QC activity was determined from a standard curve of β-naphthylamine under assay conditions.
Reactions were carried out at 30° C. utilizing the NOVOStar reader for microplates (BMG labtechnologies). The samples consisted of varying concentrations of the fluorogenic substrate, 0.1 U pyroglutamyl aminopeptidase (Qiagen) in 0.05 M Tris/HCl, pH 8.0 containing 5 mM EDTA and an appropriately diluted aliquot of QC in a final volume of 250 μl. Excitation/emission wavelengths were 380/460 nm. The assay reactions were initiated by addition of glutaminyl cyclase. QC activity was determined from a standard curve of 7-amino-4-methylcoumarin under assay conditions. The kinetic data were evaluated using GraFit software.
This novel assay was used to determine the kinetic parameters for most of the QC substrates.
The initial velocities were evaluated and the enzymatic activity was determined from a standard curve of ammonia under assay conditions. All samples were measured at 30° C., using either the […]uor Plus or the Sunrise (both from TECAN) reader for microplates. Kinetic data was evaluated using GraFit software.
For inhibitor testing, the sample composition was the same as described above, except for the putative inhibitory compound added. For a rapid test of QC-inhibition, samples contained 4 mM of the respective inhibitor and a substrate concentration at 1 KM. For detailed investigations of the inhibition and determination of Ki-values, influence of the inhibitor on the auxiliary enzymes was investigated first. […] The inhibitory constant was evaluated by fitting the set of progress curves to the general equation for competitive inhibition using GraFit software.

[1] = Nonenzymatic turnover (cyclization) of model substrates; assay type: physicochemical; conditions: without enzyme
mammalian QC = conditions: Busby et al. 1987 and later reports; cited from earlier work
[2] = cited from earlier work
QC = assay: pH-dependence of the QC catalyzed conversion of Glu-βNA; assay type: biochemical

T1 sequence (Q16769 29-361): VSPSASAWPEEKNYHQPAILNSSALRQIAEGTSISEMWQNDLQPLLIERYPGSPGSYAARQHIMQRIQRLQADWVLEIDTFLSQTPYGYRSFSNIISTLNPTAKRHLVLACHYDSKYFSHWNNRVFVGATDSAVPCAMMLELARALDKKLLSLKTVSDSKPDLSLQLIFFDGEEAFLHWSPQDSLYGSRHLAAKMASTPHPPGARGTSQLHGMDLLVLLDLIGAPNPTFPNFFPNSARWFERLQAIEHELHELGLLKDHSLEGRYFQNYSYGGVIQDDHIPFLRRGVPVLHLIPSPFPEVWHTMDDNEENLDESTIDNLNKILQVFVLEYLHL

| Compound | inhibition characteristics of QC by chelators (human QC) | Inhibition of a mammalian QC (mammalian QC) | also measured |
| --- | --- | --- | --- |
| O=C(O)c1cccc(C(=O)O)n1 [dipicolinic acid] | inhibition |  |  |
| NC(=O)CC[C@H](N)C(=O)Nc1ccc2ccccc2c1 [Gln-NA, Glutaminyl-beta-naphthylamine] |  |  | nonenzymatic turnover [1]: negligible |
| Oc1cccc2cccnc12 [8-hydroxy-quinoline] | inhibition |  |  |
| reduced 6-methylpterin |  | detected |  |
| N[C@@H](CCC(=O)O)C(=O)O [Glutamate] |  |  | pKa-value for the α-amino moiety [2]: ~7.5; pKa-value for the γ-carboxylic moiety [2]: about 4.2 |
| N[C@@H](CCC(=O)O)C(=O)Nc1ccc2ccccc2c1 [Glu-βNA] |  |  | nonenzymatic turnover [1]: negligible; kinetically determined pKa-value (QC): 7.55+/−0.02; pH-optimum of catalysis (QC): ~6.0 |
| c1cnc2c(c1)ccc1cccnc12 [1,10-phenanthroline] | inhibition | detected |  |
| O=C(O)CN(CCN(CC(=O)O)CC(=O)O)CC(=O)O [EDTA] |  | did not inhibit |  |
